The values below come from PMC3712578, “Luteolin is a novel p90 ribosomal S6 kinase (RSK) inhibitor that suppresses Notch4 signaling by blocking the activation of Y-box binding protein-1 (YB-1)” (Oncotarget, 2013).

The target of experiment [1] is T1, RSK2 (Homo sapiens, UniProt P51812).
T1 construct: gene RPS6KA3
Kind of experiment: in vitro RSK2 kinase assay, YB-1 peptide substrate. It is filed as biochemical.

In experiment [2] the target is T1, RSK2. Kind of experiment: biochemical. More on the design: In vitro RSK2 kinase assay with S6K peptide substrate, dose-response 0.001-100 uM (SignalChem). The procedure:
Following the RSK1 screen, a broad dose-response study (0.001-100 μM) was conducted against RSK2 using the YB-1 peptide as a substrate in cell-free assays (Table 2). […] Kinase profiling services for RSK2 were provided by SignalChem, as previously described. […] To confirm inhibition of RSK2 activity, we also repeated the kinase assay with a secondary RSK substrate, S6K.

The target in experiment [3] is T2, RSK1 (Homo sapiens, UniProt Q15418).
T2 construct: gene RPS6KA1
T2 sequence (Q15418 whole entry): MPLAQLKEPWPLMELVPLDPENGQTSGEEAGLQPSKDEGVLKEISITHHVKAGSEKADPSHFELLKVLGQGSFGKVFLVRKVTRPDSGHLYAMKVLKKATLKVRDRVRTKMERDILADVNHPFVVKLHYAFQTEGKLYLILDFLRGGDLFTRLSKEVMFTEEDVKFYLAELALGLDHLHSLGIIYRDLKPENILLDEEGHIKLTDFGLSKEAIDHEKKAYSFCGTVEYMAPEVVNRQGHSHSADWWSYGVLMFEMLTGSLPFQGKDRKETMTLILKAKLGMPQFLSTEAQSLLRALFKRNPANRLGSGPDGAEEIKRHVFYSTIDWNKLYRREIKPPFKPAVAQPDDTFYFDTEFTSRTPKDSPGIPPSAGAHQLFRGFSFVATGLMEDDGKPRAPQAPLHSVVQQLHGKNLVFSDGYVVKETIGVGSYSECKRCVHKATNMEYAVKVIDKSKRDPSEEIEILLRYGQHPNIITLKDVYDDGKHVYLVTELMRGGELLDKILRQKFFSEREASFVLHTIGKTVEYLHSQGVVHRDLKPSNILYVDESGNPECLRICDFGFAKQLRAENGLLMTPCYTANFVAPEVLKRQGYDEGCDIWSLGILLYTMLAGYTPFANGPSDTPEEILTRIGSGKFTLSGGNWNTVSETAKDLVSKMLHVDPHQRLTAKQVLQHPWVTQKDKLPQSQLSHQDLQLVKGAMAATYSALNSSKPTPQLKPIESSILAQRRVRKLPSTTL
Nature of the experiment: biochemical. More on the design: In vitro RSK1 kinase assay with S6K peptide substrate, dose-response 0.001-100 uM.

The target in experiment [4] is T2, RSK1. Nature of the experiment: in vitro RSK1 kinase assay, YB-1 peptide ([…] screen) and S6K peptide dose response. It is filed as biochemical.
Where [5] appears, read: read-out: Inhibition of RSK2 (%) against the YB-1 peptide as the substrate / IC50.

Each structure is given as a SMILES string.

T1 sequence (P51812 whole entry): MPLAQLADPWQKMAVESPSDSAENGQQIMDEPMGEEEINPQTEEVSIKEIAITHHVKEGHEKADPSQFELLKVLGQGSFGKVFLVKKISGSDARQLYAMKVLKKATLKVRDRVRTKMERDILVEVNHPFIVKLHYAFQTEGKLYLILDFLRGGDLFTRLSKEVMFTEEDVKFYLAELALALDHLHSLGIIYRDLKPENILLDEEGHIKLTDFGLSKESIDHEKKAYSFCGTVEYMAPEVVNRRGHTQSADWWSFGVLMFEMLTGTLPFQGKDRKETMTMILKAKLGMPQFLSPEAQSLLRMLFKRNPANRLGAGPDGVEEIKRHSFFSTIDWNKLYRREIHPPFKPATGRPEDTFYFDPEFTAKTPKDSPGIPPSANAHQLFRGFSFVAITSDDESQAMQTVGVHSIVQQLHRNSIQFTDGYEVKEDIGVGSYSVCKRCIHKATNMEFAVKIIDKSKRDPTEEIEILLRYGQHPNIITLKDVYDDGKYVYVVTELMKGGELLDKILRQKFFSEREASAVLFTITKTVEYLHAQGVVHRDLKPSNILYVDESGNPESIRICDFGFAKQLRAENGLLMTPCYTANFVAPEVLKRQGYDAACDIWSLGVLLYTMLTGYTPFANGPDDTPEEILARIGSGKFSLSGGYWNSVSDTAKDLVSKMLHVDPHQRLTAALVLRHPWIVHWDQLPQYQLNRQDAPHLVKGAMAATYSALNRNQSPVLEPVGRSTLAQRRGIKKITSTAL

With `O=c1cc(-c2ccc(O)cc2)oc2cc(O)cc(O)c12` [Apigenin], the values for the IC50 in experiment [1], in experiment [2] and in experiment [3] were 4770 nM, 3480 nM and 3780 nM, respectively.

On to `O=c1c(O)c(-c2ccc(O)cc2)oc2cc(O)cc(O)c12` [Kaempferol], for which the IC50 in experiment [1] (setting [5]) was 1710 nM; in experiment [2], 760 nM; in experiment [3], 1480 nM. Moreover, the “in vitro RSK1 kinase assay, YB-1 peptide (10 μM screen) and S6K peptide dose res” value in experiment [4] is recorded as “all three compounds inhibited the kinase activity of both isoforms in the low micromolar range”.

Take `O=c1cc(-c2ccc(O)c(O)c2)oc2cc(O)cc(O)c12` [Luteolin]: the figures for the IC50 in experiment [1] (setting [5]) and in experiment [3] were 4420 nM and 2250 nM, respectively. Besides, the “in vitro RSK1 kinase assay, YB-1 peptide (10 μM screen) and S6K peptide dose res” value in experiment [4] was “all three compounds inhibited the kinase activity of both isoforms in the low micromolar range”.
